Non-standard residues stand in square brackets, D forms with d. Residues, ends and D or L forms follow the SMILES beside them. Gly(N-2-aminoethyl) = NCCNCC(=O)O

The test system of assay [1] is basal gastric acid secretion. The assay can be described thus: Gastric antisecretory activity in unanesthetized gastric fistula rat, i.v. As to conditions: 200 μg i.v. single bolus. The format is in vivo. The procedure:
The gastric antisecretory effect of somatostatin analogs was studied in a model which utilizes unanesthetized rats.
All operative techniques were carried out on fasted female albino rats (average weight 250 g), under Penthrane anesthesia, using montraumatic microsurgical instruments, polyethylene tubing and a special adhesive. The basic model used in the present studies consisted of:
This allowed adequate hydration through the constant infusion of 0.15M NaCl (at the rate of 1.4 ml/hr.). This catheter was also used for i.v. administration of solutions of the test compounds.
(b) Catheterization of the stomach. A cannula in the forestomach allowed washing of the gastric lumen with saline (before experiments). Water (0.2 ml/10 min) was infused through this catheter during the experimental periods. This was done to prevent obstruction of the "collecting" cannula (see below) by gastric debris and to obtain a practical workable volume to measure several parameters of gastric secretion. A second cannula was positioned in the glandular stomach, close to the greater curvature, in the more dependent site and in such a way as to allow collection, by gravity, of all fluids emerging from the stomach. Passage of these secretions through a small glass container permitted continuous recording of pH by means of a glass microelectrode. A fraction collector was used to simultaneously obtain the gastric secretions.
(c) Catheterization of the lower part of the common bile duct to procure mixed secretions of bile and pancreatic juice as a function of time. This was done with the purpose of examining the effect of these compounds, if any, on bile flow.
This preparation is suitable for the bioassay of microgram quantities of gastric secretory depressants in which each animal serves as its own control. The rats (250 g b.w.) were allowed to attain a period of stabilized gastric acid output (for one hour) and were then injected intravenously (100 μl) with 200 μg of the test compound. This single bolus injection was immediately followed by a rinsing injection of 50 μl saline, thus insuring quantitative delivery of the dose. The pH was recorded continuously for 1 hour before and 1 1/2 hour after the i.v. injection of the test compounds. The gastric secretions were collected over 10-minute intervals before and after dosage. Four parameters of gastric secretion were evaluated: (a) changes in the negative logarithm of the hydrogen ion activity (pH, determined by the glass electrode either by a continuous trace or in samples taken at 10-minute intervals); (b) volume; (c) total acid concentration (μEq/ml); and d) total acid output (μEq/10-min periods).

For assay [2], the system named is pentagastrin-induced gastric acid secretion. As to conditions: Brown et al. 1977; cited from earlier work.
Assay [3] deals with growth hormone, insulin and glucagon. As to conditions: Brown et al. 1977; cited from earlier work.
In assay [4] the test system is gastric secretion. The assay can be described thus: Gastric antisecretory activity after intragastric administration, unanesthetized rat. It is filed as in vivo. As to conditions: 8 mg/kg b.w. intragastrically, saline solution. The procedure: The unanesthetized rat model was used in an exact manner to that employed in the evaluation of gastric antisecretory activity after parenteral administration described above in A, with the following modification. Following recording of the gastric pH for 1 hour, drainage of the gastric secretions was interrupted by means of a forceps. Saline solutions (total volume = 1000 μl) of Compound N (at the dose of 8 mg/kg b.w.) were then intragastrically administered, via the canula in the avascular stomach, which was closed. Fifteen minutes later, the catheter draining the gastric secretions was reopened; the water infusion through the catheter in the forestomach was simultaneously reestablished. The pH was now recorded continuously for 1 1/2 hours. Samples of gastric juice were taken before and after treatment, and analyzed for the usual four parameters of gastric secretion.

Turning to `C[C@H](N)C(=O)NCC(=O)N[C@@H](CS)C(=O)N[C@@H](CCCCN)C(=O)N[C@@H](CC(N)=O)C(=O)N[C@@H](Cc1ccccc1)C(=O)N[C@@H](Cc1ccccc1)C(=O)N[C@@H](Cc1c[nH]c2ccccc12)C(=O)N[C@@H](CCCCN)C(=O)N[C@H](C(=O)N[C@@H](Cc1ccccc1)C(=O)N[C@H](C(=O)N[C@@H](CO)C(=O)N[C@@H](CS)C(=O)O)[C@@H](C)O)[C@@H](C)O` [Compound B, HAlaGlyCysLysAsnPhePheTrpLysThrPheThrSerCysOH], in assay [1], the “gastric antisecretory activity (pH and acid concentration), in words, relative to somatostatin” value is listed as “as active as the oxidized, cyclic somatostatin”.
Still for that read-out and setting: to `C[C@@H](O)[C@@H]1NC(=O)[C@H](CCCCN)NC(=O)[C@H](Cc2c[nH]c3ccccc23)NC(=O)[C@H](Cc2ccccc2)NC(=O)[C@H](Cc2ccccc2)NC(=O)[C@H](CC(N)=O)NC(=O)[C@H](CCCCN)NC(=O)CN(CCN)C(=O)[C@H](CO)NC(=O)[C@H]([C@@H](C)O)NC(=O)[C@H](Cc2ccccc2)NC1=O` [Compound D, Cyclo [Aminoethylglycyl-L-lysyl-L-asparaginyl-L-phenylalanyl-L-phenylalanyl-L-tryptophyl-L-lysyl-L-threonyl-L-phenylalanyl-L-threonyl-L-seryl]] (cyclo(FFWKTFTS[Gly(N-2-aminoethyl)]KN)) belongs “erratic activity”; to `C[C@H](NC(=O)CNCCN)C(=O)NCC(=O)N[C@@H](CS)C(=O)N[C@@H](CCCCN)C(=O)N[C@@H](CC(N)=O)C(=O)N[C@@H](Cc1ccccc1)C(=O)N[C@@H](Cc1ccccc1)C(=O)N[C@@H](Cc1c[nH]c2ccccc12)C(=O)N[C@@H](CCCCN)C(=O)N[C@H](C(=O)N[C@@H](Cc1ccccc1)C(=O)N[C@H](C(=O)N[C@@H](CO)C(=O)N[C@@H](CS)C(=O)O)[C@@H](C)O)[C@@H](C)O` [Compound E, Aminoethylglycyl-L-alanyl-glycyl-L-cysteinyl-L-lysyl-L-asparaginyl-L-phenylalanyl-L-phenylalanyl-L-tryptophyl-L-lysyl-L-threonyl-L-phenylalanyl-L-threonyl-L-seryl-L-cysteine], “severely decreases activity”; to `C[C@@H](O)[C@H](NC(=O)[C@H](Cc1ccccc1)NC(=O)[C@@H](NC(=O)[C@H](CCCCN)NC(=O)[C@H](Cc1c[nH]c2ccccc12)NC(=O)[C@H](Cc1ccccc1)NC(=O)[C@H](Cc1ccccc1)NC(=O)[C@H](CC(N)=O)NC(=O)[C@H](CCCCN)NC(=O)[C@H](CS)NC(=O)CNCCN)[C@@H](C)O)C(=O)N[C@@H](CO)C(=O)N[C@@H](CS)C(=O)N(CCN)CC(=O)O` [Compound J, Aminoethylglycyl-L-cysteinyl-L-lysyl-L-asparaginyl-L-phenylalanyl-L-phenylalanyl-L-tryptophyl-L-lysyl-L-threonyl-L-phenylalanyl-L-threonyl-L-seryl-L-cysteinyl-aminoethylglycine] (H-[Gly(N-2-aminoethyl)]CKNFFWKTFTSC[Gly(N-2-aminoethyl)]-OH), “less active than somatostatin”.
Regarding (D-Trp^8)-somatostatin, the “potency in inhibition of pentagastrin-induced gastric acid secretion relative to somatostatin” value in assay [2] is given as “less potent”. In assay [3], the “potency in inhibition of growth hormone, insulin and glucagon relative to somatostatin” value is “higher potency than somatostatin”.
For “Aminoethylglycyl-aminoethylglycyl-L-cysteinyl-L-lysyl-L-asparaginyl-L-phenylalanyl-L-phenylalanyl-D-tryptopyl-L-lysyl-L-threonyl-L-phenylalanyl-L-threonyl-L-seryl-L-cysteine [Compound N]”, the “gastric antisecretory activity after intragastric administration” value in assay [4] was “active after intragastric administration”.

Values taken from patent US4145337A, “Aminoethylglycine containing polypeptides” (Hoffmann-La Roche Inc., priority 1977, dated 1979).
